Results reported in EP4151646A1, “5-FLUOROURACIL DERIVATIVES AS PRODRUGS FOR CANCER TREATMENT” (Universität Hamburg, priority 2021, dated 2023).

How the values were obtained:
Assay type in all cases: cell-based
MDA-MB231 = experiment: XTT cytotoxicity test on triple-negative breast carcinoma cell line; settings: 25, 12.5 and 6.25 µmol/l, compared with 5-FU, 72 hours incubation
From the text: In a first approach, six different JW-substances (JW-1, JW-2, JW-3, JW-4, JW-5, JW-6) having the general structure according to formula 1b above with acyloxybenzyl-groups of different lengths (from 8 to 13 carbon atoms) in three different concentrations (25, 12.5 and 6.25 µmol/l) were investigated. As a comparison, 5-FU was used in the same concentrations. The investigated cell line was a triple-negative breast carcinoma (MDA-MB231), see Fig. 2. The treatment of Triple Negative Breast Cancer is not well standardised, however, one of the treatment options includes 5-FU (Yin L, Duan JJ, Bian XW, Yu SC. Triple-negative breast cancer molecular subtyping and treatment progress. Breast Cancer Res. 2020 Jun 9;22(1):61. doi: 10.1186/s13058-020-01296-5. PMID: 32517735; PMCID: PMC7285581). […] Table 1. Residues RA1 and RB1 of six different symmetrically masked 5-Fluorouracil nucleoside triphosphate prodrugs according to the invention.
The experiments consisted of three steps. […] After an incubation period of 72 hours, XTT-colouring (see, e.g., Roehm NW, Rodgers GH, Hatfield SM, Glasebrook AL, 1991, An improved colorimetric assay for cell proliferation and viability utilizing the tetrazolium salt XTT, J Immunol Methods, 142(2):257-65. doi: 10.1016/0022-1759(91)90114-u) was applied and the absorbance was measured after 6 hours. […]

SW620 = experiment: XTT cytotoxicity test on colon carcinoma cell line, wider concentration range; settings: 30 µmol in triple dilution up to 0.014 µmol
Description: Further investigations were performed in relation these two substances (JW-1 and JW-4). The same procedure as in the first experiments was used, but with a wider concentration range in order to examine the onset of cytotoxicity and the therapeutic range more closely. Thus, JW-1, JW-4 and 5-FU were applied to the cells (colon carcinoma cell line SW620) in the concentrations of 30 µmol in triple dilution up to 0.014 µmol and then examined according to the same scheme. […] A major advantage is, however, their increased therapeutic range. The cytotoxicity threshold is much lower than that of 5-FU. In the case of 5-FU, first cytotoxic effects can be detected between 1 and 3 µmol. In comparison, the threshold for JW-1 and JW-4 is below 1 µmol.
(§1) The experiments consisted of three steps. On the first day, the cells were planted on 96-well-plates and left for growing and adhering for 24 hours. On the second day, the substances were applied in the known concentrations, diluted in the cell-line specific medium. After an incubation period of 72 hours, XTT-colouring (see, e.g., Roehm NW, Rodgers GH, Hatfield SM, Glasebrook AL, 1991, An improved colorimetric assay for cell proliferation and viability utilizing the tetrazolium salt XTT, J Immunol Methods, 142(2):257-65. doi: 10.1016/0022-1759(91)90114-u) was applied and the absorbance was measured after 6 hours. Table 2. Residues RA1 and RB1 of three further 5-Fluorouracil nucleoside triphosphate prodrugs according to the invention, being asymmetrically substituted with residues RA1 and RB1.

HT29 = experiment: XTT cell viability test on colon cancer cell line HT29; settings: 72 hours incubation
From the text: Three further JW-substances (JW-7, JW-8, JW-9) having the general structure according to formula 1b above with acyloxybenzyl-groups of different lengths (from 4 to 17 carbon atoms), but being asymmetrically substituted (i.e. having different groups R^A1 and R^B1), in four different concentrations (1.11, 3.33, 10 and 30 µmol/l) were investigated. As a comparison, 5-FU was used in the same concentrations. The investigated cell lines were the colon cancer cell lines CaCo2 and HT29.
as §1

Compound | cytotoxic effects (MDA-MB231) | IC-50 values compared with 5-FU (SW620) | cytotoxicity threshold (first cytotoxic effects) (SW620) | IC50 (HT29; 1.11, 3.33, 10 and 30 µmol/l) [µM] | also measured
C11-TriPPPro [JW-4] | significantly stronger cytotoxicity | at least as low as 5-FU | below 1 µmol |  | 
C8-TriPPPro [JW-1] | significantly stronger cytotoxicity | at least as low as 5-FU | below 1 µmol |  | 
O=c1[nH]cc(F)c(=O)[nH]1 [Compound 5-FU, 5-fluorouracil] |  |  |  |  | IC50 (HT29; Homo sapiens, HT-29, 1.11, 3.33, 10 and 30 µmol/l): ~15 µM
C4/C17-TriPPPro [JW-07] |  |  |  | 4 to 5 | 
C10/C12-TriPPPro [JW-09] |  |  |  | 1 to 2 | 
C7/C9-TriPPPro [JW-08] |  |  |  | 2 | 
